Data taken from patent publication US8933099B2, “Monocyclic pyridine derivative” (Eisai R&D Management Co., Ltd., priority 2013, dated 2015).

Legend:
[1] = test system: normal human umbilical vein endothelial cells (HUVEC); assay: HUVEC growth inhibition assay (VEGF-induced); format: cell-based; details: Homo sapiens, HUVEC, 72 h; growth in the presence of VEGF 10 ng/mL, 3 days; read-out: HUVEC (IC50 (nM))
Procedure: The absorbance value was measured with ENVISION™ (PerkinElmer Co., Ltd.) at 450 nm. The absorbance values of the wells without adding the test substance but with VEGF addition was defined as 100% and the absorbance values of the wells with neither the test substance nor VEGF addition was defined as 0%.

[2] = target: FGFR1 protein (Homo sapiens (Human), UniProt P11362); assay: biochemical
Sequence of FGFR1 protein (P11362 22-822): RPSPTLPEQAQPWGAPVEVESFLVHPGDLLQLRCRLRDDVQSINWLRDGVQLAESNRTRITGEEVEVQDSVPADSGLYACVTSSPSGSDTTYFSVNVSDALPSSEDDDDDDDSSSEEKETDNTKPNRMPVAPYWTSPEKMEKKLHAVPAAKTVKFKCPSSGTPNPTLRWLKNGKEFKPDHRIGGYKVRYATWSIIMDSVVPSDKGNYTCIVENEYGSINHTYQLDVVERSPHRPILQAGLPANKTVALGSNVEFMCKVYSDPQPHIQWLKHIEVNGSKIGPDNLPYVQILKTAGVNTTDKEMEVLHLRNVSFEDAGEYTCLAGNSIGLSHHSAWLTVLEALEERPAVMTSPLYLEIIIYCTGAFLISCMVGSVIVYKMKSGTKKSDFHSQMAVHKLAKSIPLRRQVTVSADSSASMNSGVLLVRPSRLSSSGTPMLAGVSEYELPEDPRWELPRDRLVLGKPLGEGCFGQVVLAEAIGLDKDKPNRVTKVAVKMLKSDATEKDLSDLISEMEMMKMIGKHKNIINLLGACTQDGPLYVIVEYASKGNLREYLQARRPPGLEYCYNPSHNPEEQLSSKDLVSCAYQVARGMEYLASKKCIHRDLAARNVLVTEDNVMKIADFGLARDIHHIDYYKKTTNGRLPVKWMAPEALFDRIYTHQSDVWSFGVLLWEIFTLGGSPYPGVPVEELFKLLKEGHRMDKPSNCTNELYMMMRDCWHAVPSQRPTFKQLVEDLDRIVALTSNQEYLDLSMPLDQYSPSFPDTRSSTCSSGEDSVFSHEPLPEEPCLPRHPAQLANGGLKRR

[3] = test system: human stomach cancer cell line SNU-16 (FGFR2 gene amplification); assay: SNU-16 growth inhibition assay; format: cell-based; details: Homo sapiens, SNU-16, 72 h; cell growth, 3 days, Cell Counting Kit-8; read-out: SNU-16 (IC50 (nM))
Procedure: In this assay, the growth inhibitory activity of a test substance in a human stomach cancer cell line harboring FGFR2 gene amplification is measured.
Then, 10 μL of Cell Counting Kit-8 (Dojindo Laboratories, CK04) was added to each well, and the resultant was incubated for 1 to 2 hours in a 5% CO2 incubator (37° C.) to cause a color reaction. The absorbance value was measured with ENVISION™ (PerkinElmer Co., Ltd.) at 450 nm.

IC50 [2]: 9.8 nM
IC50 [3]: 7.5 nM
SMILES: CNC(=O)n1ccc2cc(Oc3ccnc(NC(=O)c4ccc(C5CCNCC5)cc4)c3)c(OC)cc21 [Example 1, 6-Methoxy-N-methyl-5-((2-(4-(piperidin-4-yl)benzamide)pyridin-4-yl)oxy)-1H-indole-1-carboxamide]
IC50 [1]: 98.7 nM
